{"source": "patent US6780853B1", "about": "“Neuroactive steroids of the androstane and pregnane series” (priority 1995, dated 2004)", "key": {"[1]": {"tested_on": "metrazol induced convulsions", "details": "cited from earlier work"}, "TBPS [2]": {"tested_on": "TBPS", "details": "data from Swinyard & Woodhead 1982; cited from earlier work"}, "[3]": {"tested_on": "STR (strychnine) convulsions", "details": "cited from earlier work"}, "[4]": {"tested_on": "BIC (bicuclline) convulsions", "details": "cited from earlier work"}, "[5]": {"tested_on": "maximal electroshock tonic seizure", "details": "cited from earlier work"}, "[6]": {"details": "data from Swinyard & Woodhead 1982; cited from earlier work"}, "[7]": {"experiment": "Rotorod test (general CNS depression potential)", "set-up": "species or system mice", "details": "mouse, in vivo, ip, 50% hydroxypropyl-β-cyclodextrin", "text": "(§1) The anticonvulsant tests are similar to that described above."}, "[8]": {"tested_on": "metrazol induced convulsions", "experiment": "Antimetrazol activity in mice", "assay_type": "in vivo", "details": "Mus musculus; steroid i.p., convulsant s.c., 50% hydroxypropyl-β-cyclodextrin", "outline": "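Mice dosed with test compounds at various doses 10 minutes before metrazol (85 mg/kg) injection. Each animal observed for 30 minutes, recording time to onset of myoclonus (forelimb clonic activity).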"}, "hormonal activity": {"tested_on": "hormonal activity", "experiment": "Hormonal activity in vivo", "set-up": "species or system animals", "text": "Thus, they wil not have the hormonal side-effects which would be associated with binding to such steroid receptors."}, "[9]": {"tested_on": "maximal electroshock tonic seizure", "experiment": "Maximal electroshock test", "assay_type": "in vivo, mice", "details": "Mus musculus, ip, 50% hydroxypropyl-β-cyclodextrin", "text": "as §1"}, "[10]": {"tested_on": "BIC (bicuclline) convulsions", "experiment": "Chemical convulsant test, BIC", "assay_type": "in vivo, mice", "details": "Mus musculus; steroid i.p., convulsant s.c., 50% hydroxypropyl-β-cyclodextrin", "text": "as §1"}, "[11]": {"tested_on": "STR (strychnine) convulsions", "experiment": "Chemical convulsant test, strychnine", "assay_type": "in vivo, mice", "details": "Mus musculus, read-out: ED50 STR", "text": "as §1"}, "TBPS [12]": {"tested_on": "TBPS", "experiment": "Chemical convulsant test, column TBPS", "assay_type": "in vivo, mice", "details": "Mus musculus, read-out: ED50 TBPS", "text": "as §1"}, "Progesterone Receptors": {"tested_on": "Progesterone Receptors", "experiment": "Inhibition of 3H-Progesterone Binding to the Bovine Uteral Progesterone Receptors", "details": "competitor 10^−6M; 3H-progesterone 0.15 nM"}, "[13]": {"details": "data from Swinyard & Woodhead 1982"}, "[14]": {"details": "convulsant i.v., data from Worms et al. 1982"}}, "note": "Where two headings read alike, the source gives them in different places."}
{"compound": "O=C1CN=C(c2ccccc2Cl)c2cc([N+](=O)[O-])ccc2N1", "note": "[Clonazepam]", "values": [{"measurement": "ED50 PTZ", "setting": "[1]; [13]", "value": 0.025, "unit": "mg/kg"}, {"measurement": "ED50 TBPS", "setting": "TBPS [2]", "value": 205, "unit": "mg/kg"}, {"measurement": "ED50 STR", "setting": "[3]; [13]", "value": ">300", "unit": "mg/kg"}, {"measurement": "ED50 BIC", "setting": "[4]; [13]", "value": 0.0046, "unit": "mg/kg"}, {"measurement": "ED50 MES", "setting": "[5]; [13]", "value": 111, "unit": "mg/kg"}, {"measurement": "ED50 RR", "setting": "[6]", "value": 0.184, "unit": "mg/kg"}]}
{"compound": "CC(=O)[C@H]1CC[C@H]2[C@@H]3CC[C@H]4C[C@](C)(O)CC[C@]4(C)[C@H]3CC[C@]12C", "note": "[5α-pregnan-3α-ol-3β-methyl-20-one, 3α-hydroxy-3β-methyl-5α-pregnan-20-one]", "values": [{"measurement": "ED50 at 10 min", "setting": "[7]", "value": 33.4, "unit": "mg/kg"}, {"measurement": "ED50", "setting": "[8]", "value": 4.3, "unit": "mg/kg"}, {"measurement": "hormonal activity when given to animals in vivo", "setting": "hormonal activity", "value": "not to have any hormonal activity"}, {"measurement": "ED50", "setting": "[9]", "value": 29.7, "unit": "mg/kg"}, {"measurement": "ED50", "setting": "[10]", "value": 4.6, "unit": "mg/kg"}, {"measurement": "ED50", "setting": "[11]", "value": "> 40", "unit": "mg/kg"}, {"measurement": "ED50", "setting": "TBPS [12]", "value": 11.7, "unit": "mg/kg"}, {"measurement": "% of Inhibition", "setting": "Progesterone Receptors", "value": 4, "unit": "%"}]}
{"compound": "NC(=O)CCC/N=C(\\c1ccc(Cl)cc1)c1cc(F)ccc1O", "note": "[Progabide]", "values": [{"measurement": "ED50 PTZ", "setting": "[1]; [14]", "value": 30, "unit": "mg/kg"}, {"measurement": "ED50 STR", "setting": "[3]; [14]", "value": 75, "unit": "mg/kg"}, {"measurement": "ED50 BIC", "setting": "[4]; [14]", "value": 30, "unit": "mg/kg"}, {"measurement": "ED50 MES", "setting": "[5]; data from Worms et al. 1982", "value": 75, "unit": "mg/kg"}]}
